Results: PMC8949241, “Design, Synthesis and Biological Evaluation of Neogliptin, a Novel 2-Azabicyclo[2.2.1]heptane-Based Inhibitor of Dipeptidyl Peptidase-4 (DPP-4)” (Pharmaceuticals, 2022)

Molecular target: T1, recombinant DPP-4 enzyme D4943 (Homo sapiens, UniProt P27487)
T1 construct: purchased Sigma-Aldrich D4943
Assay: DPP-4 enzyme inhibition, chromogenic substrate Gly-Pro-pNA, absorbance at 405 nm
Assay type: biochemical
Conditions: 37 °C for 30 min, pH 7.6, dilution range 10^−4 to 10^−11 M
Method: The DDP-4 enzyme inhibitory activities of the synthesised compounds were assessed using protocols similar to those described in the literature. For IC50 values determination, inhibitory assays were carried out using recombinant DPP-4 enzyme D4943, chromogenic substrate Gly-Pro-pNA and buffer system (50 mM Tris-HCl, 50 mM NaCl, 0.01% Triton, pH = 7.6). After short incubation (37 °C for 30 min), the absorbance at 405 nm was measured. The procedure was initially optimised using reference compounds. Each inhibitor was analysed in the dilution range from 10^−4 to 10^−11 M. Certified samples of commercial drugs-inhibitors of DPP-4 (vilda-, sita-, alo- and linagliptin) with known IC50 were used as reference compounds. […] We analysed every compound in the dilution range […] (Table 3).
For the inhibitory assays, we used the substrate Gly-Pro-p-nitroanilide (H-Gly-Pro-pNA HCl, G0513) and recombinant dipeptidyl peptidase-4 enzyme (D4943) that were purchased from Sigma-Aldrich (St. Louis, MO, USA). […] The mixtures were incubated at 37 °C for 30 min, and the absorbance at 405 nm was measured using the microplate reader ChemWell (Awareness Technology Inc., Palm City, FL, USA). DPP-4 inhibitory activities for each test compound were calculated. […]

T1 sequence (P27487 whole entry): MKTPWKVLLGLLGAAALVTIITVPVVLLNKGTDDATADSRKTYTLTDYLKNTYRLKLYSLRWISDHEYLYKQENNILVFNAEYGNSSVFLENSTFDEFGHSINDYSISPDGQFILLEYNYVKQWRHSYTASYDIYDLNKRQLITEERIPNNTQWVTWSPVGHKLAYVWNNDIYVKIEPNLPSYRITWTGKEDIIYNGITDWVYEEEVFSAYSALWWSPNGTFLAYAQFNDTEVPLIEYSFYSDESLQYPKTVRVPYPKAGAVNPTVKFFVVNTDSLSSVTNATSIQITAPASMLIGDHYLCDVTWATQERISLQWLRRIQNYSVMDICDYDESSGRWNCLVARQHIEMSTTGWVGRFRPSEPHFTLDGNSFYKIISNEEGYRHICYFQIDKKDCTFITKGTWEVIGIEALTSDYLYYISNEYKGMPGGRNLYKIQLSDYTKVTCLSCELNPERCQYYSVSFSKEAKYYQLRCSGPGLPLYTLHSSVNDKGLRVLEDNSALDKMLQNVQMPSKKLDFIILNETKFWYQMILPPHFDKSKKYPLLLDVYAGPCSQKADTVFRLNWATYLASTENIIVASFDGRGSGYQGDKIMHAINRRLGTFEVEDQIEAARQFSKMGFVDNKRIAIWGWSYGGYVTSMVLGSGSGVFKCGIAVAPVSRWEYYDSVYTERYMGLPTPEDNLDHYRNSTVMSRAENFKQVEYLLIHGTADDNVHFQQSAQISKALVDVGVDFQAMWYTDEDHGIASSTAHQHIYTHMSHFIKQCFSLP

IC50: > 1000 nM
Substance: ( 3R,S)-2-[(3R)-3-Amino-4-(2,4,5-trifluorophenyl)butanoyl]-endo-2-azabicyclo[2.2.1]hepnane-3-carbonitrile p-toluenesulpfonate [12c (S-endo): 12d (R-endo), 1:1 mixture]
